Active and inactive are the calls of the source.
Assays:
Format in all cases: functional
[1] = target: T1, Tyrosine-protein kinase receptor TYRO3 (Homo sapiens, UniProt Q06418);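 further: TYRO3 value obtained as one member of a kinome-wide profiling panel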
T1 sequence (Q06418 whole entry): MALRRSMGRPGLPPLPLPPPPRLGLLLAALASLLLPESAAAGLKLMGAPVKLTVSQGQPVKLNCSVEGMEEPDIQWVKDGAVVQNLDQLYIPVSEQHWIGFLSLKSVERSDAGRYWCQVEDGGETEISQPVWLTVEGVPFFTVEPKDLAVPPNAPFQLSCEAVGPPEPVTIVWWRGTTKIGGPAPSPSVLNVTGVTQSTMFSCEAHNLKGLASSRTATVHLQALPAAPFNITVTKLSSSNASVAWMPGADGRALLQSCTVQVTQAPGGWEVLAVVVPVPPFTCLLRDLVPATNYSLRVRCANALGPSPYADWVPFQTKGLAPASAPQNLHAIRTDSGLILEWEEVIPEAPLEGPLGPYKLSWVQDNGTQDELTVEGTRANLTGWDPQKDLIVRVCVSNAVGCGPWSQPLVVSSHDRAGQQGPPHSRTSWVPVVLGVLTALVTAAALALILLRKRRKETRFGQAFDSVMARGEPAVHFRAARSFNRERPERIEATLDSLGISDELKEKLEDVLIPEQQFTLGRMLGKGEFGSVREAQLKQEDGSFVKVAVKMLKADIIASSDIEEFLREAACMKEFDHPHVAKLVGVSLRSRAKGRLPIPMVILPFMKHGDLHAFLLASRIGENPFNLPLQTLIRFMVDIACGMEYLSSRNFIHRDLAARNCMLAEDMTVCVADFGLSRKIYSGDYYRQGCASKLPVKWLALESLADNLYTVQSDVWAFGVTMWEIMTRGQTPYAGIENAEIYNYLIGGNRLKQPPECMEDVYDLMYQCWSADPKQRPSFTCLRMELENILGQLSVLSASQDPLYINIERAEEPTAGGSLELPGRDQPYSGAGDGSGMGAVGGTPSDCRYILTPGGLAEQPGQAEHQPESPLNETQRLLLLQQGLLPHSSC

[2] = target: Glycogen synthase kinase-3 beta (Homo sapiens, UniProt P49841);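 further: value comes from a broad kinome profiling panel, with GSK3B as the panel member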
Sequence of Glycogen synthase kinase-3 beta (P49841 whole entry): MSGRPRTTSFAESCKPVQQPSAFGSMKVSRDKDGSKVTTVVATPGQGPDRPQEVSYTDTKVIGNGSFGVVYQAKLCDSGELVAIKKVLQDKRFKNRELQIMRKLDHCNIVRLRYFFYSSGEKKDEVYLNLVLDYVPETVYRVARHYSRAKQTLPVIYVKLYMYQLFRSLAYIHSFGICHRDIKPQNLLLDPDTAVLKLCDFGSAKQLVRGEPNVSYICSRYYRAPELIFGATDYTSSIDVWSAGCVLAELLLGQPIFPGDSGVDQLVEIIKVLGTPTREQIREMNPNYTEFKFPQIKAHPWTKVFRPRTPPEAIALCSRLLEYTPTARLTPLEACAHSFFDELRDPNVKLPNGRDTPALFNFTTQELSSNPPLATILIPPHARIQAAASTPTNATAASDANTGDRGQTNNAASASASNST

[3] = target: T2, cAMP-dependent protein kinase catalytic subunit PRKX (Homo sapiens, UniProt P51817)
T2 sequence (P51817 whole entry): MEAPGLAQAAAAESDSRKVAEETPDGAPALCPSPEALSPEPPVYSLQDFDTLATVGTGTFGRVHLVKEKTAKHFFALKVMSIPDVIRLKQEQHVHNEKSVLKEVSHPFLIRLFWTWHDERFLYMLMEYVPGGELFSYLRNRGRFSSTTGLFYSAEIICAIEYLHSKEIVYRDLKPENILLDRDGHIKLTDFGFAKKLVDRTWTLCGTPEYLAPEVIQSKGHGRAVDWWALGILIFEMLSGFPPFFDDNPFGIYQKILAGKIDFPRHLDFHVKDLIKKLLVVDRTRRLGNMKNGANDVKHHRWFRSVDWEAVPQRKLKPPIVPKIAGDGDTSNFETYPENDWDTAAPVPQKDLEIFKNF

[4] = target: Calcium/calmodulin-dependent protein kinase type II subunit alpha (Homo sapiens, UniProt Q9UQM7); assay: Navigating the Kinome. Panel member name: CAMK2A
Sequence of Calcium/calmodulin-dependent protein kinase type II subunit alpha (Q9UQM7 whole entry): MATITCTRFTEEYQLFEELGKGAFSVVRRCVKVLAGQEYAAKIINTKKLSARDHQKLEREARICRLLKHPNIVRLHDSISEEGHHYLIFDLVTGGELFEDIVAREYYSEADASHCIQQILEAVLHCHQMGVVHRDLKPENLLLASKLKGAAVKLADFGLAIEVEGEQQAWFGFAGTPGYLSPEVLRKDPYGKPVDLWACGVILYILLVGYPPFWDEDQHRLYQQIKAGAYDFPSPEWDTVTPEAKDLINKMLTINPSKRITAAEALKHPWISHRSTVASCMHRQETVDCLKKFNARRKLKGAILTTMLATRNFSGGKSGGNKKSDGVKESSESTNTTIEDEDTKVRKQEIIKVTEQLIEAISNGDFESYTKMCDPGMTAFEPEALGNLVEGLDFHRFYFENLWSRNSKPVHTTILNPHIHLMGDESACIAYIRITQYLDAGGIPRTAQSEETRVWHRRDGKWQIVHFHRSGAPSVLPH

[5] = target: T3, Serine/threonine-protein kinase D3 (Homo sapiens, UniProt O94806);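 further: determined within a kinase panel screen, with PRKCN as the panel member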
T3 sequence (O94806 whole entry): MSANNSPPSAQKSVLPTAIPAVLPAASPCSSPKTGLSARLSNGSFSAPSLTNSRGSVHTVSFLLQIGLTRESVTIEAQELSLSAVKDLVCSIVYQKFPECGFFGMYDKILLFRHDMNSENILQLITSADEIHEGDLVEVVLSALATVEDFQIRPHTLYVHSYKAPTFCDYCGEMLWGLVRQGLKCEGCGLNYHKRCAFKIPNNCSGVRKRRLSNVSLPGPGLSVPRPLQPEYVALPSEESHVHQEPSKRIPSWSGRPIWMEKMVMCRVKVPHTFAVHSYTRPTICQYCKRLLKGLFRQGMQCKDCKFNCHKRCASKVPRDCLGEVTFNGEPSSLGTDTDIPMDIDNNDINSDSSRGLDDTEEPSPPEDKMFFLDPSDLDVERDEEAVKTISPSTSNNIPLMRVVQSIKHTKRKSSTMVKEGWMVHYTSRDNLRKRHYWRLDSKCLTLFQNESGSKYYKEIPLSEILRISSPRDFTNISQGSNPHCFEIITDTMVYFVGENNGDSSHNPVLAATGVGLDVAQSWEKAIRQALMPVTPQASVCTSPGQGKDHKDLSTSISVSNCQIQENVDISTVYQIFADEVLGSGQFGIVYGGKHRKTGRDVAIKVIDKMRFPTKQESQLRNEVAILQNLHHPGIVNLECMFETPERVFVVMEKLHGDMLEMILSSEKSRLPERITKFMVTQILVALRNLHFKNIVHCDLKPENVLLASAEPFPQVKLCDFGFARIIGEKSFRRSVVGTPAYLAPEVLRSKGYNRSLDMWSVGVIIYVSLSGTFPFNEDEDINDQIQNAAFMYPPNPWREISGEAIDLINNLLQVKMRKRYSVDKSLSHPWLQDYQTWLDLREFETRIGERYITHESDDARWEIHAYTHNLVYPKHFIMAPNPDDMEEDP

[6] = target: Macrophage colony-stimulating factor 1 receptor (Homo sapiens, UniProt P07333);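 further: value comes from the Navigating the Kinome screening panel, CSF1R member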
Sequence of Macrophage colony-stimulating factor 1 receptor (P07333 whole entry): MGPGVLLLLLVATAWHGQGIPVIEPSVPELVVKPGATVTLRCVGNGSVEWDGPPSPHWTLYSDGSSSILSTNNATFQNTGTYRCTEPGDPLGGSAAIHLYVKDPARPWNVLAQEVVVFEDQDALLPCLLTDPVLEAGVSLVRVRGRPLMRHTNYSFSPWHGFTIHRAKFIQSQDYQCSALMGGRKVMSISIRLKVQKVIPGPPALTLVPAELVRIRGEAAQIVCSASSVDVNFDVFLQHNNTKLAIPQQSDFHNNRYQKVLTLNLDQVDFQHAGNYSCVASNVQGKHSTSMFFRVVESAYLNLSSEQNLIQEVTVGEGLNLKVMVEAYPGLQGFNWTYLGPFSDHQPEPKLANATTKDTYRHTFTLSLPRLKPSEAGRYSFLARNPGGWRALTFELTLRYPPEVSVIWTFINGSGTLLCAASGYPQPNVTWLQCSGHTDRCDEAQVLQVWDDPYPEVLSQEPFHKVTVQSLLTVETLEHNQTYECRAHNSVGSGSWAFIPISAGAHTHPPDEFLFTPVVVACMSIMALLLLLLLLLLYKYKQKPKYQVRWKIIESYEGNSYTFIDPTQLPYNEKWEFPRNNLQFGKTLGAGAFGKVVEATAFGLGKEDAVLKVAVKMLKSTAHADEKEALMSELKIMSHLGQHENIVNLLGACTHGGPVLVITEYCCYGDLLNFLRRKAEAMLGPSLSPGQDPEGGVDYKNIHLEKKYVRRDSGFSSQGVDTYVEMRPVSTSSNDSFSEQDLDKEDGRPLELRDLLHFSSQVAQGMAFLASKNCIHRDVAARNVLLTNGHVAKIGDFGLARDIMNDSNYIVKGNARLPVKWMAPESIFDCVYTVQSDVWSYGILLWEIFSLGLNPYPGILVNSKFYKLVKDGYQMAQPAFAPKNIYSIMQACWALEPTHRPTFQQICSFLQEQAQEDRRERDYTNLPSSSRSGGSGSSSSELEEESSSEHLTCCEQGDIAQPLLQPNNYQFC

[7] = target: Cyclin-dependent kinase 7 (Homo sapiens, UniProt P50613);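 further: value comes from a kinome-wide kinase profiling panel in which CDK7 is one member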
Sequence of Cyclin-dependent kinase 7 (P50613 whole entry): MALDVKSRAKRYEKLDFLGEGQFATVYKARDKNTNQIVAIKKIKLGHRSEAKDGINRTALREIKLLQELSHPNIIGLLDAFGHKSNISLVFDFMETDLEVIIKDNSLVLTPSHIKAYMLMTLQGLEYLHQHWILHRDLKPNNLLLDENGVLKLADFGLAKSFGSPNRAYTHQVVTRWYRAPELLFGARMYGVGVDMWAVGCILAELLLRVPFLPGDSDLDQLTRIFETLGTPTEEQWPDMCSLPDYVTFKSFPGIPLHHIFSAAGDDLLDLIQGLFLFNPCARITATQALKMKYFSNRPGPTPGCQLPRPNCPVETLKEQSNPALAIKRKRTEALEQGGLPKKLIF

[8] = target: Fibroblast growth factor receptor 1 (Homo sapiens, UniProt P11362)
Sequence of Fibroblast growth factor receptor 1 (P11362 whole entry): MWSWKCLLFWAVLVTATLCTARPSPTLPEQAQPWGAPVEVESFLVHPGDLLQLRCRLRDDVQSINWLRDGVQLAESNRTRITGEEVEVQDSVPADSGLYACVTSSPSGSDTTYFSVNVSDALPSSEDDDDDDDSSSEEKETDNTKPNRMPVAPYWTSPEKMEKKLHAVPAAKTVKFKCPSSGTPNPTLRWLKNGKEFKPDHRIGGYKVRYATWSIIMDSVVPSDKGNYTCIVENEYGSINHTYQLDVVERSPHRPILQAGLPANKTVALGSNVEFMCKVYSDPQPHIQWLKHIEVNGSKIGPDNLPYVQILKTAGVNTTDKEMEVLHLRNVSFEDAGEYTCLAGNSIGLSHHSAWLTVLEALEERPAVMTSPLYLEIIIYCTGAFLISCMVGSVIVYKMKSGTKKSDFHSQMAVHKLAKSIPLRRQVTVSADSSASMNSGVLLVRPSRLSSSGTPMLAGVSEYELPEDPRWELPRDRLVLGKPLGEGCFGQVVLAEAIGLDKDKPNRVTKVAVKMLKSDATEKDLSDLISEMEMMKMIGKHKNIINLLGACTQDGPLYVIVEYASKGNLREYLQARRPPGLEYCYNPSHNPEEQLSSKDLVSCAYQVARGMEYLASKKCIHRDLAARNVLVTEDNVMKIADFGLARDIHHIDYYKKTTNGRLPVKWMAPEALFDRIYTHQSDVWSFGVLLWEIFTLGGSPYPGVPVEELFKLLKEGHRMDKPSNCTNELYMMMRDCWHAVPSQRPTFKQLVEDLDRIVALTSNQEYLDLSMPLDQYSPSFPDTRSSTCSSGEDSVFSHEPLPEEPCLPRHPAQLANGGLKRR

[9] = target: Tyrosine-protein kinase JAK2 (Homo sapiens, UniProt O60674);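 further: JAK2 tested as one member of a kinase panel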
Sequence of Tyrosine-protein kinase JAK2 (O60674 whole entry): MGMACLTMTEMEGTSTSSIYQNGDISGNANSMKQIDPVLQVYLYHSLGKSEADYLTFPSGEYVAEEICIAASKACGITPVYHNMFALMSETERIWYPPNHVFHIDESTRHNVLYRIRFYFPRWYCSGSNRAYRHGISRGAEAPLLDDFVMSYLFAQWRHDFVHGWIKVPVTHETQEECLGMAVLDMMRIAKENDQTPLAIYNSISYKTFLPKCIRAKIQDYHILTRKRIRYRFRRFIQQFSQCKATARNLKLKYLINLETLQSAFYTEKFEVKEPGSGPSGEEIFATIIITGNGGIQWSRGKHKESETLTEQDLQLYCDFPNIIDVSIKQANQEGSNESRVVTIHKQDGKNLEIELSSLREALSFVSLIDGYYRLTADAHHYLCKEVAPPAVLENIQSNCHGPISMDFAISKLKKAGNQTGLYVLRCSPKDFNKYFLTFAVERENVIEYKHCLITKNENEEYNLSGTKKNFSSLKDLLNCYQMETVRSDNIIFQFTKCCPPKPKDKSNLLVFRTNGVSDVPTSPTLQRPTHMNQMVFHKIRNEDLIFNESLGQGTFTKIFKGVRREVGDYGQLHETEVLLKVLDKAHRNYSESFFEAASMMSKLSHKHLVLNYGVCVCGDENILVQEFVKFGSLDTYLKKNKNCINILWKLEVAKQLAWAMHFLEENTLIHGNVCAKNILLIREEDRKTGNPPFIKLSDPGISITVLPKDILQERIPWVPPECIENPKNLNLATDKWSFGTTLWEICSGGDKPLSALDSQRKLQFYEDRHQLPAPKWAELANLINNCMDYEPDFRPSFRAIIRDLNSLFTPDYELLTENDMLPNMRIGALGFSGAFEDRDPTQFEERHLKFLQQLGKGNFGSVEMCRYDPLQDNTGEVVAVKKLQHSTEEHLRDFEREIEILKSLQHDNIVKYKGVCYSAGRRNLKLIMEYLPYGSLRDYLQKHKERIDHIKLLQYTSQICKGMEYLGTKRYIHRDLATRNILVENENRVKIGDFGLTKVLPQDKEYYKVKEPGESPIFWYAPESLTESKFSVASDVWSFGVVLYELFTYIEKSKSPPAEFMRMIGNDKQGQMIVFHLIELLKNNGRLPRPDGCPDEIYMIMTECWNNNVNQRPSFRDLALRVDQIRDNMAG

OCc1cc(-c2ccc3[nH]ncc3c2)on1
Ki [1]: 63.1 µM (active)
Ki [2]: 3.16 µM (active)
Ki [3]: 15.8 µM (active)
Ki [4]: 79.4 µM (active)
Ki [5]: 12.6 µM (active)
Ki [6]: > 100 µM (inactive)
Ki [7]: 12.6 µM (active)
Ki [8]: 20 µM (active)
Ki [9]: 25.1 µM (active)

CC(C)(O)c1cn(-c2ccc3[nH]ncc3c2)nn1
Ki [1]: 25.1 µM (active)
Ki [2]: 12.6 µM (active)
Ki [3]: 20 µM (active)
Ki [4]: 63.1 µM (active)
Ki [5]: 50.1 µM (active)
Ki [6]: 39.8 µM (active)
Ki [7]: 10 µM (active)
Ki [8]: 39.8 µM (active)
Ki [9]: 31.6 µM (active)

NC1CCC(Nc2nccc(-c3c[nH]c4ncccc34)n2)CC1 (stereo not given)
Ki [1]: > 2 µM (inactive)
Ki [2]: 0.2 µM (active)
Ki [3]: 0.00631 µM (active)
Ki [5]: 0.00631 µM (active)
Ki [6]: 0.1 µM (active)
Ki [7]: 0.00398 µM (active)
Ki [8]: 3.98 µM (active)
Ki [9]: 0.251 µM (active)

COC(C(=O)N1Cc2[nH]nc(NC(=O)c3ccc(N4CCN(C)CC4)cc3)c2C1)c1ccccc1 (stereo not given)
Ki [1]: > 2.51 µM (inactive)
Ki [3]: > 2.51 µM (inactive)
Ki [4]: > 6.31 µM (inactive)
Ki [6]: 0.158 µM (active)

Reference: ChEMBL document CHEMBL1201862, “PubChem BioAssay data set” (2004)
